In patent publication US20210196817A1, “Compositions and Methods for Selectively Modulating Tregs” (Augusta University Research Institute, Inc., priority 2014, published 2021):

Assays:
Tconvs (CD4+Foxp3-) [1] = assay: pAkt (S473) phosphorylation by flow cytometry in activated Tconvs; format: cell-based, mouse; details: 10 nM, 100 nM and 1 μM, 72 hrs, anti-CD3/anti-CD28/IL-2 activated
Description: (§1) Negative selection of CD4 T-cells from splenocytes was performed using magnetic bead separation technique according to the manufacturer's recommendations R&D Systems (Minneapolis, Minn.). Tregs (CD4+Foxp3+) and Tconvs (CD4+Foxp3-) were sorted from enriched CD4 cells using FACS ARIA II cell sorter (BD Biosciences).
(§2) Sorted Tregs and Tconvs were labeled with VCT according to the manufacturer's protocol (Life Technologies, NY). Cells stimulated with and without inhibitors in the presence of 10 μg/mL plate-bound anti-CD3, 2.5 μg/mL soluble anti-CD28, and 100 IU/mL IL-2. After 3 days, cells were stained with live/dead cell stain (Life Technologies, NY), fixed, permeabelized and stained with anti-CD4-FITC and anti-Foxp3-AlexaFluor 647. For pAkt (S473) and pS6 analysis, the signal was amplified by using a biotin-conjugated donkey anti-rabbit antibody (BD Biosciences) and Streptavidin-PE. After staining, cells were acquired on LSRII SORP flow cytometer and analyzed using FlowJo software (Tree Star).
(§3) The phosphorylation status of Akt (S473) in activated Tregs and Tconvs was measured by flow cytometry after treatment with titrated concentrations of the individual inhibitors. The concentrations choice was based on previously published IC50 of the inhibitors (Table 1) and the in-vitro viability of T-cells. Concentrations that maintain more than 70% viability of the T-cells were used.

Tregs (CD4+Foxp3+) [2] = assay: Continuous inhibition of PI3Kδ in vivo: Tregs, CD4 and CD8 cells, incl. tumor infiltration
Tregs (CD4+Foxp3+) [3] = assay: pAkt (S473) phosphorylation by flow cytometry in activated Tregs; format: cell-based, mouse; details: 10 nM, 100 nM and 1 μM, 72 hrs, anti-CD3/anti-CD28/IL-2 activated
Description: as §1, §2, §3

Tregs (CD4+Foxp3+) [4] = assay: Violet Cell Trace proliferation assay, Tregs; format: cell-based, mouse; details: all tested concentrations, 3 days, anti-CD3/anti-CD28/IL-2
Description: (§4) Sorted Tregs and Tconvs were labeled with VCT according to the manufacturer's protocol (Life Technologies, NY). Cells stimulated with and without inhibitors in the presence of 10 μg/mL plate-bound anti-CD3, 2.5 μg/mL soluble anti-CD28, and 100 IU/mL IL-2. After 3 days, cells were stained with live/dead cell stain (Life Technologies, NY), fixed, permeabelized and stained with anti-CD4-FITC and anti-Foxp3-AlexaFluor 647. […] After staining, cells were acquired on LSRII SORP flow cytometer and analyzed using FlowJo software (Tree Star).

Tconvs (CD4+Foxp3-) [5] = assay: Violet Cell Trace proliferation assay, Tconvs; format: cell-based, mouse; details: all tested concentrations, 3 days, anti-CD3/anti-CD28/IL-2
Description: as §4

PI3Kα = PI3Kα (Homo sapiens, UniProt P42336); details: previously published IC50; cited from earlier work
Chain of PI3Kα (P42336 whole entry, species assumed): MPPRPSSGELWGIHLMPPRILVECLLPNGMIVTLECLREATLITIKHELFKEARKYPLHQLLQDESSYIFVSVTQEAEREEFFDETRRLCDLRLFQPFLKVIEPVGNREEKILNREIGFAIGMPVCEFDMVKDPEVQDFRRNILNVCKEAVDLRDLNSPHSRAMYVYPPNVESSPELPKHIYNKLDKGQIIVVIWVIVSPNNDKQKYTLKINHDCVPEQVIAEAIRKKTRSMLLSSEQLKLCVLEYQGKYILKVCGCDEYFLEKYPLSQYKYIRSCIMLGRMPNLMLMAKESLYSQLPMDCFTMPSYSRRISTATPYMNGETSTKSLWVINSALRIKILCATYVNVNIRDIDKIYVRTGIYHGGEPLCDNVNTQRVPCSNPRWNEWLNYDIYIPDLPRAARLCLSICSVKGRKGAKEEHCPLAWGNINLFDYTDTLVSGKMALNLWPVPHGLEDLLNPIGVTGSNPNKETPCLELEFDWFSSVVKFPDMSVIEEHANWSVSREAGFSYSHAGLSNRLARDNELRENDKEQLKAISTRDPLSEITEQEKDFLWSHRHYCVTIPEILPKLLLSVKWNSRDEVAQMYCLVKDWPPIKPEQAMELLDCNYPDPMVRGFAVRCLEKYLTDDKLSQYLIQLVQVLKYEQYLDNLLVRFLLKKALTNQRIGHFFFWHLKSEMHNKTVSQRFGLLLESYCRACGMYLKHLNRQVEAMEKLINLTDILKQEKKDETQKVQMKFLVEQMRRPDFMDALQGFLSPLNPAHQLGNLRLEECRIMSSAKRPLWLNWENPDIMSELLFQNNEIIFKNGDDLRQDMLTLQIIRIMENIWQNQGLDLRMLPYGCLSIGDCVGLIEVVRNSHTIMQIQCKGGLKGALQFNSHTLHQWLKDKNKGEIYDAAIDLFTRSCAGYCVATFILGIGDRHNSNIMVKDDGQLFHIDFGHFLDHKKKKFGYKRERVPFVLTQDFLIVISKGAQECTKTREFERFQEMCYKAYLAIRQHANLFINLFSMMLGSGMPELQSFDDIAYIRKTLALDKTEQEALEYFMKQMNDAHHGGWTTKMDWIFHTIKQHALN

PI3Kδ = PI3Kδ (Homo sapiens, UniProt O00329); details: previously published IC50; cited from earlier work
Chain of PI3Kδ (O00329 whole entry): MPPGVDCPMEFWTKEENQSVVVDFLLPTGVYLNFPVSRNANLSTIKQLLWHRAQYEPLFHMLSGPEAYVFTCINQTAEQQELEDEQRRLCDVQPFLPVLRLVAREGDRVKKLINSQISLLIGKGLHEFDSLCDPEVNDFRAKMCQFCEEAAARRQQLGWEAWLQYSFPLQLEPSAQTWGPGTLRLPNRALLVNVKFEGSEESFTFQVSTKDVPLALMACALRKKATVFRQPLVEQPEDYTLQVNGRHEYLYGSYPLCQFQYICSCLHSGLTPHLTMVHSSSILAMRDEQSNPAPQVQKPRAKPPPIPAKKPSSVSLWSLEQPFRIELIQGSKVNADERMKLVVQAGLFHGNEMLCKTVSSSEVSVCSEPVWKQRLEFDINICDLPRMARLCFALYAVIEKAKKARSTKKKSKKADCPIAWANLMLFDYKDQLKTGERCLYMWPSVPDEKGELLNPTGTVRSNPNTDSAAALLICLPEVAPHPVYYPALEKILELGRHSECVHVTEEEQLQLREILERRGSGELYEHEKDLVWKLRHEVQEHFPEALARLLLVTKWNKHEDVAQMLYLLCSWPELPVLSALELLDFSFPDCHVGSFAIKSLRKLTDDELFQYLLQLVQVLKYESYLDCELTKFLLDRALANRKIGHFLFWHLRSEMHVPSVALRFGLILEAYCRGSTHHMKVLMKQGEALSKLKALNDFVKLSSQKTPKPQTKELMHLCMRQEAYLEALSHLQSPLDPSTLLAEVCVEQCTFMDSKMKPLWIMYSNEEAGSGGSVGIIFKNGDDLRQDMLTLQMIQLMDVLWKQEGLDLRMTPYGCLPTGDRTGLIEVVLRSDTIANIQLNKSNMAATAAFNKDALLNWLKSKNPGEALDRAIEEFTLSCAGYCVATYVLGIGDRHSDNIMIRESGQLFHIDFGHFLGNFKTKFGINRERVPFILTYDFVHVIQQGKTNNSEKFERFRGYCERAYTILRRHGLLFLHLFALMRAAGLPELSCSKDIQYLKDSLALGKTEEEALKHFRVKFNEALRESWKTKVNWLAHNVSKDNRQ
Chain of PI3Kδ (P27986 whole entry partner): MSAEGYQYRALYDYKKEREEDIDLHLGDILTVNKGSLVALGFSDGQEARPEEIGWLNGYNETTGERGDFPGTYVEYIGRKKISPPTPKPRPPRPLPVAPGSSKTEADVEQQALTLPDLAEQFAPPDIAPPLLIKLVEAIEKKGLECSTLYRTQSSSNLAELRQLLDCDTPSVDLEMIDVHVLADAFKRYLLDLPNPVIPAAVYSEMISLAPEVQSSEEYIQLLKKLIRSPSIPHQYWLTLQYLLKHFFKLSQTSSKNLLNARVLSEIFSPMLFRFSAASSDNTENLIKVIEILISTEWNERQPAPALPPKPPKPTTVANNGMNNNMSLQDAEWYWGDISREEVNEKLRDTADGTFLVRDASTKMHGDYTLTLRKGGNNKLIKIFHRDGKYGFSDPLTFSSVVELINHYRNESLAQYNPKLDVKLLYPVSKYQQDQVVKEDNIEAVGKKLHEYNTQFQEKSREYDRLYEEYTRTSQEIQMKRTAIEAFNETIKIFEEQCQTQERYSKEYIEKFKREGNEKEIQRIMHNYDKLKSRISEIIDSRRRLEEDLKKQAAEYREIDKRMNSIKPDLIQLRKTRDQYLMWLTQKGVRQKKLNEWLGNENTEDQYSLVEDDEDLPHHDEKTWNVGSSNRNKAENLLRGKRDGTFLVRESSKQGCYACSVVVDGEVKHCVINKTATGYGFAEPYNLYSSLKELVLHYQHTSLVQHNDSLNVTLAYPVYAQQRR

PI3Kγ = PI3Kγ (Homo sapiens, UniProt P48736); details: previously published IC50; cited from earlier work
Chain of PI3Kγ (P48736 whole entry, species assumed): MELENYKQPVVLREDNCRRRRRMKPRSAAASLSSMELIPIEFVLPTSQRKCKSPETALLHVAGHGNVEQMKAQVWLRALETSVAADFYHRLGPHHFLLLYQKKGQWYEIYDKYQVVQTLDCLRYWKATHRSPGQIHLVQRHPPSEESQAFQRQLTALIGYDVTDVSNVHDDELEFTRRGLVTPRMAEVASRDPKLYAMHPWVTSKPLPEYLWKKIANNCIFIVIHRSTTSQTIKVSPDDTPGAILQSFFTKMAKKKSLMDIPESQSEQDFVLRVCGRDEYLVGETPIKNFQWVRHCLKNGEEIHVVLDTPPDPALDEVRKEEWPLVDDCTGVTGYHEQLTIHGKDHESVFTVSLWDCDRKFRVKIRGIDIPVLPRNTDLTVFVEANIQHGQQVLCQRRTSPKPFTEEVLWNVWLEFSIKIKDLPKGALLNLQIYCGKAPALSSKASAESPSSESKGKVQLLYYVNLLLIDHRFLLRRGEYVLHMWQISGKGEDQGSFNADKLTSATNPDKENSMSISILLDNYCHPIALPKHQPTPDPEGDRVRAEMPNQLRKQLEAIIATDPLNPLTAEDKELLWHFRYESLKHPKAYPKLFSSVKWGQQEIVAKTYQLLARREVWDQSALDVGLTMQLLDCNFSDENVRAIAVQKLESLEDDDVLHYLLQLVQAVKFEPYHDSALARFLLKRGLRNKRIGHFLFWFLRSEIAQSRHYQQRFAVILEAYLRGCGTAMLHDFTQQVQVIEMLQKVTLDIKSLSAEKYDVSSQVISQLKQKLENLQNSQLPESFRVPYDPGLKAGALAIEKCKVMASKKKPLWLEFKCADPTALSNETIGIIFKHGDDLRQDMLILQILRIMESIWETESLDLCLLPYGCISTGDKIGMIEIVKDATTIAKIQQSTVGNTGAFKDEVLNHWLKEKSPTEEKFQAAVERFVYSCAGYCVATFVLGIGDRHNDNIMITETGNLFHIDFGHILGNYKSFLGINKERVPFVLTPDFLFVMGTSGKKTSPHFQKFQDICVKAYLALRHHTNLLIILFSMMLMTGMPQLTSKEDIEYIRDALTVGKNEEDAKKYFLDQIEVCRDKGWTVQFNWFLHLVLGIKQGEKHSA

Structure (SMILES) | inhibition of pAkt (S473) in Tconvs (Tconvs (CD4+Foxp3-) [1]) | CD4 and CD8 cells in tumor (per 10^6 of CD45+CD3+) (Tregs (CD4+Foxp3+) [2]; 10 mg/kg, continuous treatment) | CD4 and CD8 cells under continuous treatment (Tregs (CD4+Foxp3+) [2]; day 26 vs day 12 baseline and vehicle) | inhibition of pAkt (S473) in Tregs (Tregs (CD4+Foxp3+) [3]) | inhibition of proliferation of Tregs (Tregs (CD4+Foxp3+) [4]) | inhibition of proliferation of Tconvs (Tconvs (CD4+Foxp3-) [5]) | IC50 (PI3Kα) [µM] | IC50 (PI3Kδ) [µM] | IC50 (PI3Kγ) [µM]
CC[C@H](Nc1ncnc2[nH]cnc12)c1nc2cccc(F)c2c(=O)n1-c1ccccc1 [CAL-101] | no effect | no effect | no effect | – | – | – | – | – | –
Cc1nc(NC(=O)N2CCC[C@H]2C(N)=O)sc1-c1csc(C(C)(C)C)n1 [A66] | No remarkable inhibition | – | – | No remarkable inhibition | – | – | – | – | –
Cc1cc(C(C)Nc2ccccc2)c2nc(N3CCOCC3)cc(=O)n2c1 (stereo not drawn) [TGX-221] | No remarkable inhibition | – | – | No remarkable inhibition | no inhibition | no inhibition | 5 | 0.1 | > 10
